The source of these data is patent US9840470B2, “Targeting GLI proteins in human cancer by small molecules” (The Regents of the University of California, priority 2013, dated 2017).

Data set [1] deals with Hedgehog signaling pathway. In words: Quantitative RT-PCR of Hh pathway genes in xenograft tumors. It is filed as in vivo, mouse. Conditions: Melanoma tumor (MelJuso), pooled tumor from two mice. The method, then: Total RNA was isolated using Qiagen RNeasy Mini Kit (Valencia, Calif.). Hybridization probes and primers (Table 1) were purchased from Applied Biosystems (ABI, Foster City, Calif.). cDNA synthesis and Taqman® PCR were performed according to the manufactures' protocols. The gene expression was assayed in triplicate in ABI 7300 Real-time PCR System. Samples were normalized to their housekeeping gene GAPDH and then calculated by using 2^−dct method.
To examine whether Compounds 1, 2, 4, and 6 suppressed tumor growth through inhibition of the Hedgehog signaling pathway in vivo, expression of the key components and direct target genes of the Hh pathway (e.g. Gli1, Gli2, Gli3, HHIP and Cyclin D1) were analyzed by quantitative real-time RT-PCR using total RNA isolated from the xenograft tumors. GAPDH served as a control. This RT-PCR analysis was performed using a “pooled” tumor from two randomly selected mice of each group with reasonable size tumors. […] The results are shown in FIG. 4, where C is control and V is vehicle.

Data set [2] has as its system mesothelioma MS-1. In words: In vivo efficacy, mouse xenograft model (mesothelioma MS-1). As to conditions: 50 mg/kg body weight i.p. daily for 14 days, from ten days after inoculation. The protocol: The administered compounds were tested in vivo in the mouse xenograft model bearing human cancer cells. Briefly, female athymic nude mice strain NCRNU-M (5-10 weeks old, 20-25 grams in weight; Taconic, Germantown, N.Y.) was maintained in pathogen-free conditions. Three human cancer cell lines: NSCLC A549, melanoma MelJuso, and mesothelioma MS-1 were used. Five or ten mice were used in each group and injected s.c. with 3×10^6 cancer cells in the dorsal area in a volume of 100 μl. After inoculation, human cancer cells were allowed to grow in mice for 10-13 days to become visible tumor nodules. Animals were then injected with a compound of the embodiments at a dose of 50 mg/kg body weight (1 mg/mouse per day). Vehicle alone was used as control. The compounds and controls were adjusted in 40 ul volume for i.p. injection in the abdomens of the mice. Injections were performed daily around the same time for 14 days. […] Tumor size was measured every three to four days, and tumor volumes were calculated using width (x) and length (y) (x^2y/2, where x<y). Throughout this period, general toxicity of the treatments was also monitored by measuring body weight of the mice. […]
In vivo efficacy study of Compounds 1 and 4 were performed using a Mouse Xenograft Model (Mesothelioma MS-1). […] Tumor sizes was measured twice weekly until the completion of the experiments. […]

The nature of data set [3]: Preliminary in vivo toxicity: leukocyte population and body weight after treatment. Further details: species or system mouse. The protocol:
The administered compounds were tested in vivo in the mouse xenograft model bearing human cancer cells. Briefly, female athymic nude mice strain NCRNU-M (5-10 weeks old, 20-25 grams in weight; Taconic, Germantown, N.Y.) was maintained in pathogen-free conditions. Three human cancer cell lines: NSCLC A549, melanoma MelJuso, and mesothelioma MS-1 were used. Five or ten mice were used in each group and injected s.c. with 3×10^6 cancer cells in the dorsal area in a volume of 100 μl. After inoculation, human cancer cells were allowed to grow in mice for 10-13 days to become visible tumor nodules. Animals were then injected with a compound of the embodiments at a dose of 50 mg/kg body weight (1 mg/mouse per day). Vehicle alone was used as control. The compounds and controls were adjusted in 40 ul volume for i.p. injection in the abdomens of the mice. Injections were performed daily around the same time for 14 days. Tumors were allowed to grow for 1-2 additional weeks after completion of the compound treatments. Tumor size was measured every three to four days, and tumor volumes were calculated using width (x) and length (y) (x^2y/2, where x<y). Throughout this period, general toxicity of the treatments was also monitored by measuring body weight of the mice. Data was presented as mean values (±S.D.).
After the in vivo studies were completed, different organs were resected from mice. These organs included liver, lung, heart, kidney, intestines, ovary, brain, spleen, skin, and muscle. The specimens were fixed in 4% buffered formaldehyde, embedded in paraffin, sectioned, and histologically analyzed by hematoxylin and eosin (HE) staining. The HE stained slides were examined by a mouse pathologist for toxicity evidence from all the organs as compared with vehicle controls. In addition, leukocytes (WBC: white blood cell, NE: neutrophil, LY: lymphocyte, MO: monocyte, EO: eosinophil, BA: basophil) from each animal from all treatment groups were collected and leukocyte population was counted through a blood cell counter.
(§1) As preliminary in vivo toxicity study of Compounds 1, 2, 4, and 6, it was examined if there were changes of leukocyte population and loss of body weight in the mice after the treatment. At the completion of the in vivo studies as described herein, leukocytes (WBC: white blood cell, NE: neutrophil, LY: lymphocyte, MO: monocyte, EO: eosinophil, BA: basophil) from each animal from all treatment groups were collected and leukocyte population was counted through a blood cell counter. Body weights of control groups (n=10) and the treated group (n=10) were measured using a scale during the course of drug administration. […] In an additional toxicity study, effect of different doses of compounds 4 and 6 on the body weight of mice was examined. The compounds were i.p. injected in the abdomens at 3 different doses: 25, 50, and 100 mg/kg body weight to mice (3 mice per dosing group) for 6 consecutive days.

Data set [4] relates to human NSCLC cell lines. Nature of the data set: Combination treatment with chemotherapies, MTS proliferation assay, lung cancer cells. It is filed as cell-based. Conditions: 72 hours, Combination Index. An excerpt: Another assay for determining the number of viable cells in proliferation or cytotoxicity assays is the MTS assay, a colorimetric method. MTS assay reagents are commercially available (Promega Corp., Madison, Wis.). The reagent contains a tetrazolium compound [3-(4,5-dimethylthiazol-2-yl)-5-(3-carboxymethoxyphenyl)-2-(4-sulfophenyl)-2H-tetrazolium, inner salt; MTS] and an electron coupling reagent (phenazine ethosulfate; PES). PES has enhanced chemical stability, which allows it to be combined with MTS to form a stable solution. The MTS tetrazolium compound (Owen's reagent) is bioreduced by cells into a colored formazan product that is soluble in tissue culture medium. This conversion may be accomplished by NADPH or NADH produced by dehydrogenase enzymes in metabolically active cells. The quantity of formazan product as measured by the absorbance at 490 nm is directly proportional to the number of living cells in culture. Because the MTS formazan product is soluble in tissue culture medium, this assay requires fewer steps than procedures that use tetrazolium compounds such as MTT. The formazan product of MTT reduction is a crystalline precipitate that requires an additional step in the procedure to dissolve the crystals before recording absorbance readings at 570 nm.
Combination treatments of the Compounds with several chemotherapies: erlotinib (Tarceva®), PI3K inhibitor LY294002, TGFβ inhibitor SB431542, and pemetrexed (Alimta®) were performed in human NSCLC and MM cell lines (FIGS. 12-17). In all experiments, NSCLC and MM cell lines were treated with different doses of each compound or combination for 72 hours, and MTS assays were performed to determine the cell proliferations. Combination Index (CI), calculated by CalcuSyn software (Biosoft, Cambridge, UK), was applied to describe the effect of the combination effects of two compounds, where CI<1 indicates Synergism, CI=1 indicates Additive effects, and CI>1 indicates Antagonism. Student's t-tests were applied for statistical analysis.
(Tetrazolium assays rely on reduction of a dye to a coloured formazan, in cell work by metabolically active cells.)

Data set [5] can be described thus: Additional toxicity study: body weight at different doses. The data set is classed as in vivo, mouse. Conditions: i.p. 25, 50, and 100 mg/kg body weight for 6 consecutive days. The method, then: Each dosing group contained 3 mice. The body weight of mice was measured using a scale. Results are the means±SD (error bars).
as §1

SMILES strings stand for the structures.

As to `CCCC1C(C(=O)NCCCC(C)(C)CO)C(c2ccc(F)cc2)=NN1c1ccccc1` (stereo not drawn) [Compound 4, 3-(4-fluoro-phenyl)-1-phenyl-5-propyl-4,5-dihydro-1H-pyrazole-4-carboxylic acid (5-hydroxy-4,4-dimethyl-pentyl)-amide], in data set [1], the “Hh signaling (expression of Gli1, Gli2, Gli3, HHIP, Cyclin D1)” value is on record as “inhibited”. For the same compound, the “tumor weight compared to the control group” value in data set [2] is listed as “decreased”. Also, the “changes of leukocyte population” value in data set [3] (at completion of the in vivo studies) is on record as “No noticeable changes of leukocyte population”. Further, the “loss of body weight” value in data set [3] (during the course of drug administration) was “No noticeable changes of leukocyte population or loss of the body weight”; in data set [5], “no noticeable loss of the body weight”. Further, the “combination effect with erlotinib (Tarceva)” value in data set [4] is on record as “synergy”.
